Test results reported in patent US10596166B2, “Combination composition comprising huperzine” (priority 2015, dated 2020).

Test system: nerve/muscle co-culture injured by glutamate
Experiment: glutamate toxicity on nerve/muscle co-culture (NMJ area, neurite network)
Format: cell-based, human muscle, rat spinal cord explants
Details: glutamate 60 μM, 20 min
Description: Human muscle (promocell, Batch: 3061107) was prepared according to a previously described method from portions of a biopsy from a healthy subject (Braun et al., (1996) J. Neurol Sci. 136: 17-23). The human muscle cell line was established from dissociated cells (21 000 cells per wells), plated in gelatin-coated 0.1% (Sigma, Batch: 051M0012V) in water on 48 wells plate (greiner, Batch: E13111ME) and grows in a proliferation medium consisting of mix of 62% of MEM medium (PAN, Batch: 2761113) and 25% of M199 medium (PAN, Batch: 6720314) supplemented with glutamine 2 mM (PAN, Batch: 8150713), human insulin 10 μg/ml (PAN, Batch: 1481013), Human recombinant Epidermal growth factor 10 ng/ml (EGF, GIBCO, Batch: 1291552A), human recombinant Fibroblast growth factor basic 2 ng/ml (bFGF, PAN, Batch: H080113), foetal calf serum 10% (FCS, GIBCO, Batch: 41Q7218K) and 2% of Penicillin 10.000 U/ml and Streptomycin 10.000 μg/ml (PS, PAN, Batch: 1451013). The medium was changed every 2 days. Five days after the start of culture, immediately after satellite cell fusion, whole transverse slices of 13-day-old rat Wistar embryos (Janvier, France) spinal cords with 4 dorsal root ganglia (DRG) attached are placed on the muscle monolayer (one explant per well in the central area). DRG are necessary to achieve a good ratio of innervation. Innervated cultures were maintained in a mixed (67%/25%) medium composed of MEM and medium 199, supplemented with 5% FCS, insulin 5 μg/ml, glutamine 2 mM and 2% PS. After 24 h of co-culture, neurites were observed growing out of the spinal cord explants. These neurites made contacts with myotubes and induced the first contractions after ˜8 days. Quickly thereafter, innervated muscle fibres located in the proximity to the spinal cord explants, were virtually continuously contracting. Innervated fibres were morphologically and spatially distinct from the non-innervated ones and could easily be distinguished from them.
On day 27, co-cultures were pre-incubated 1 hour before glutamate application with test compounds (different concentrations) tested alone or in a mixture of the 3 compounds.
One hour after HA, CA or FA Compounds and mixture (HA/CA/FA) incubation, glutamate was added to a final concentration of 60 μM diluted in control medium still in presence of 3 compounds or mix of compounds for 20 min.
After 20 min injuries, co-cultures were washed and individual test compounds and mixture were added for an additional 48 h.
After 48 h, the cocultures were prepared for end points evaluation (see below).
After 48H of intoxication, cells were incubated with 500 nM α-bungarotoxin coupled with Alexa 488 (Molecular probes, Batch: 1434893) during 15 min in culture innervations medium at 37° C. to detect NMJ. After 2 washing in PBS (Pan Biotech, Batch: 7560414), cells were fixed by a solution of 4% of paraformaldehyde (Sigma Aldrich, Batch: SLBF7274V) in PBS, pH=7.3 for 20 min at room temperature.
The cells were washed 2 times in PBS and then permeabilized and non-specific sites were blocked with a solution of PBS containing 0.1% of saponin (Sigma-Aldrich, Batch: BCBJ8417V) and 1%0 FCS (Gibco, Batch: 41F0423K) for 15 min at room temperature, co-cultures were incubated with a mouse monoclonal anti-neurofilament 200 KD antibody (NF, Sigma Aldrich, Batch: 053M4756) at the dilution of 1/400 in PBS containing 1% FCS, 0.1% saponin, for 2 h at room temperature. Antibody against NF stained the axon of motor neuron. […] Nuclei of neurons were labeled by Hoechst solution, a nuclear fluorescent marker at […] in the same solution (Hoechst solution, SIGMA, batch: 011M4004V).
The NMJ mean size (area) of NMJs and the total length of neurite were assessed under the experimental conditions described above (see Combes et al., 2015). For each condition, 20 pictures per well were taken in the center area using ImageXpress (Molecular device) with 10× magnification. All images were taken under the same conditions. […]

Question: What does the source list for `O=C(O)/C=C/c1ccc(O)c(O)c1` [CA, caffeic acid]?
Answer: neurite network (area of innervation) (CA added 1 h before glutamate): slight protection; neurite network (area of innervation) (CA highest dose (5 nM)): significance was observed; NMJ area (mean size) (CA low concentrations): unable to protect; NMJ area (mean size) (only at the highest dose (5 nM)): able to protect

Question: What does the source list for `C/C=C1\[C@H]2C=C(C)C[C@]1(N)c1ccc(=O)[nH]c1C2` [HA, huperzine A, reference compound]?
Answer: NMJ area (mean size) (HA 100 nM): significance was observed; neurite network (area of innervation) (HA 100 nM, without reaching the significance): slight neuroprotection; NMJ area (mean size) (HA, all concentrations tested): slight protective effect; neurite network (area of innervation) (HA, all concentrations tested): no neuronal protective effect

Question: For `COc1cc(/C=C/C(=O)O)ccc1O` [FA, ferulic acid], which “NMJ area (mean size)” value (FA lowest and highest concentrations) is on record?
Answer: Its value is “inactive”.

Question: What about the “NMJ area (mean size)” value (FA only at 100 nM) of the same compound?
Answer: Its value is “able to protect”.

Question: And the “neurite network (area of innervation)” value (highest dose tested (10 μM))?
Answer: Its value is “moderate effect”.
